From PMC6044914 (ACS Omega, 2017)
In brackets after ≈: the same amount, converted by molar mass. Like-named read-outs stand apart in the source and are kept apart here.

Experiments:
[1] = test system: Vero cells; conditions: for cytotoxicity (in words): Vero cells
[2] = test system: M. tuberculosis H37Rv (London Pride); assay: microbe, parasite or virus in culture; assay type: cell-based, Mycobacterium tuberculosis; conditions: for activity against M. tuberculosis (in words): SAR discussion
[3] = Mycobacterium tuberculosis, H37RV, 120 h
[4] = Mycobacterium tuberculosis, H37RV

Row | Molecule | TC50 ([1]; African green monkey) [µM] | MIC [2, 3] [µM] | activity against M. tuberculosis (in words) [2] | MIC [2, 4] [µM] | further results
1 | 3-Isobutoxy-N-(5-nitrothiazol-2-yl)picolinamide [compound 22] |  |  |  |  | TC50 [1]: 8.9 µM; MIC ([2]; Table 1, […], average ± SD of two independent experiments): 16 ± 6.4 µM
2 | Nc1ccccc1C(=O)Nc1ncc([N+](=O)[O-])s1 [compound 5, 2-Amino-N-(5-nitrothiazol-2-yl)benzamide] | 31 | > 20 | no activity |  | 
3 | CNc1ccccc1C(=O)Nc1ncc([N+](=O)[O-])s1 [compound 6, 2-(Methylamino)-N-(5-nitrothiazol-2-yl)benzamide] | 15 | > 20 | no activity |  | 
4 | CC(=O)Nc1ccccc1C(=O)Nc1ncc([N+](=O)[O-])s1 [compound 7, 2-Acetamido-N-(5-nitrothiazol-2-yl)benzamide] |  | > 20 | no activity |  | 
5 | CCC(C)(C)C(=O)Nc1ccccc1C(=O)Nc1ncc([N+](=O)[O-])s1 [compound 9, 2-(2,2-Dimethylbutanamido)-N-(5-nitrothiazol-2-yl)benzamide] | 4.1 | 17 ± 4.9 (≈ 6.16 µg/mL) | showed activity |  | 
6 | CC(C)(C)OC(=O)Nc1ccccc1C(=O)Nc1ncc([N+](=O)[O-])s1 [compound 10, tert-Butyl (2-((5-nitrothiazol-2-yl)carbamoyl)phenyl)carbamate] | 6.6 | 17 ± 4.2 (≈ 6.19 µg/mL) | showed activity |  | 
7 | O=C(Nc1ncc([N+](=O)[O-])s1)c1cc(F)ccc1O [compound 11, 5-Fluoro-2-hydroxy-N-(5-nitrothiazol-2-yl)benzamide] |  | > 20 | no activity |  | 
8 | CCC(C)(C)C(=O)Oc1cc(N2CCOCC2)ccc1C(=O)Nc1ncc([N+](=O)[O-])s1 [compound 14, 5-Morpholino-2-((5-nitrothiazol-2-yl)carbamoyl)phenyl 2,2-dimethylbutanoate] | 12 | > 20 | no activity |  | 
9 | O=C(Nc1ncc([N+](=O)[O-])s1)c1cc(O)ccc1O [compound 15, 2,5-Dihydroxy-N-(5-nitrothiazol-2-yl)benzamide] | 13 | > 20 | no activity |  | 
10 | O=C(O)c1ccccc1C(=O)Nc1ncc([N+](=O)[O-])s1 [compound 16, 2-((5-Nitrothiazol-2-yl)carbamoyl)benzoic Acid] | >50 | > 20 | no activity |  | 
11 | COc1ccccc1C(=O)Nc1ncc([N+](=O)[O-])s1 [compound 17, 2-Methoxy-N-(5-nitrothiazol-2-yl)benzamide] |  | > 20 | no activity |  | 
12 | CCC(C)(C)C(=O)Nc1cccnc1C(=O)Nc1ncc([N+](=O)[O-])s1 [compound 18, 3-(2,2-Dimethylbutanamido)-N-(5-nitrothiazol-2-yl)picolinamide] | 0.9 | 1.4 ± 0.6 (≈ 0.509 µg/mL) | showed activity |  | improvement in activity relative to 1 [2]: 10 fold
13 | COc1ccnc(C(=O)Nc2ncc([N+](=O)[O-])s2)c1 [compound 20, 4-Methoxy-N-(5-nitrothiazol-2-yl)picolinamide] | 11 | 5.6 ± 4.2 (≈ 1.57 µg/mL) |  |  | 
14 | COc1ccc(C(=O)Nc2ncc([N+](=O)[O-])s2)nc1 [compound 21, 5-Methoxy-N-(5-nitrothiazol-2-yl)picolinamide] | 4.3 | 5.5 ± 2.1 (≈ 1.54 µg/mL) |  |  | 
15 | CCC(C)(C)C(=O)Oc1cccnc1C(=O)Nc1ncc([N+](=O)[O-])s1 [compound 23, 2-((5-Nitrothiazol-2-yl)carbamoyl)pyridin-3-yl 2,2-dimethylbutanoate] | 21 | 12 ± 1 (≈ 4.37 µg/mL) |  |  | 
16 | COc1cccnc1C(=O)Nc1ncc([N+](=O)[O-])s1 [compound 24, 3-Methoxy-N-(5-nitrothiazol-2-yl)picolinamide] | 37 | > 20 | inactive |  | 
17 | O=C(Nc1ncc([N+](=O)[O-])s1)c1ccc(N2CCOCC2)cn1 [compound 25, 5-Morpholino-N-(5-nitrothiazol-2-yl)picolinamide] | 11 | > 20 | inactive |  | 
18 | CC(=O)Nc1ncc([N+](=O)[O-])s1 [compound 26, N-(5-Nitrothiazol-2-yl)acetamide] |  |  | loss of activity | > 20 | 
19 | O=C(Nc1ncc([N+](=O)[O-])s1)C1CC1 [compound 27, N-(5-nitrothiazol-2-yl)cyclopropanecarboxamide] |  |  | loss of activity | > 20 | 
20 | O=C(Nc1ncc([N+](=O)[O-])s1)C1CCCCC1O (stereo not shown) [compound 29, 2-Hydroxy-N-(5-nitrothiazol-2-yl)cyclohexane-1-carboxamide] |  |  |  | > 20 | 
21 | O=C(Nc1ncc([N+](=O)[O-])s1)c1ccncn1 [compound 30, N-(5-Nitrothiazol-2-yl)pyrimidine-4-carboxamide] |  |  | loss of activity | > 20 | 
22 | O=C(Nc1ncc([N+](=O)[O-])s1)N1CCCCC1 [compound 31, N-(5-Nitrothiazol-2-yl)piperidine-1-carboxamide] |  |  |  | > 20 | 

Row | Molecule | TC50 ([1]; African green monkey) [µM] | MIC [2, 3] [µM] | activity against M. tuberculosis (in words) [2] | MIC [2, 4] [µM] | further results
23 | O=C(Nc1ncc([N+](=O)[O-])s1)c1cnccn1 [compound 32, N-(5-Nitrothiazol-2-yl)pyrazine-2-carboxamide] |  |  |  | > 20 | 
24 | O=C(Nc1ncc([N+](=O)[O-])s1)c1nccs1 [compound 33, N-(5-Nitrothiazol-2-yl)thiazole-2-carboxamide] |  |  |  | > 20 | 
25 | O=C(Nc1ncc([N+](=O)[O-])s1)c1cccnc1 [compound 34, N-(5-Nitrothiazol-2-yl)nicotinamide] |  |  |  | > 20 | 
26 | O=C(Nc1ncc([N+](=O)[O-])s1)c1ccncc1 [compound 35, N-(5-Nitrothiazol-2-yl)isonicotinamide] |  |  |  | > 20 | 
27 | O=C(Nc1ncc([N+](=O)[O-])s1)NC1CCCCC1 [compound 38, 1-Cyclohexyl-3-(5-nitrothiazol-2-yl)urea] |  |  |  | > 20 | 
28 | O=C(Nc1ccccn1)Nc1ncc([N+](=O)[O-])s1 [compound 39, 1-(5-Nitrothiazol-2-yl)-3-(pyridin-2-yl)urea] |  |  |  | > 20 | 
29 | Cn1ccnc1C(=O)Nc1ncc([N+](=O)[O-])s1 [compound 40, 1-Methyl-N-(5-nitrothiazol-2-yl)-1H-imidazole-2-carboxamide] |  |  |  | > 20 | 
30 | O=C(Nc1ncc([N+](=O)[O-])s1)c1ncco1 [compound 41, N-(5-Nitrothiazol-2-yl)oxazole-2-carboxamide] |  |  |  | > 20 | 
31 | O=C(Nc1ncc([N+](=O)[O-])s1)c1ccon1 [compound 42, N-(5-Nitrothiazol-2-yl)isoxazole-3-carboxamide] |  |  |  | > 20 | 
32 | Cc1cnc(C(=O)Nc2ncc([N+](=O)[O-])s2)s1 [compound 43, 5-Methyl-N-(5-nitrothiazol-2-yl)thiazole-2-carboxamide] |  |  |  | > 20 | 
33 | O=C(Nc1ncc([N+](=O)[O-])s1)c1nc2ccccc2s1 [compound 44, N-(5-Nitrothiazol-2-yl)benzo[d]thiazole-2-carboxamide] |  |  |  | > 20 | 
34 | CC(=O)Oc1ccccc1C(=O)Nc1nccs1 [compound 45, 2-(Thiazol-2-ylcarbamoyl)phenyl Acetate] | >50 |  | eliminated all activity | > 20 | 
35 | Cc1nc(NC(=O)c2ccccc2O)sc1[N+](=O)[O-] [compound 46, 2-Hydroxy-N-(4-methyl-5-nitrothiazol-2-yl)benzamide] | 5.2 |  | inactive | > 20 | 
36 | Cc1cnc(NC(=O)c2ccccn2)s1 [compound 48, N-(5-Methylthiazol-2-yl)picolinamide] | 12 |  | inactive | > 20 | 
37 | O=C(Nc1ncc(C(F)(F)F)s1)c1ccccn1 [compound 49, N-(5-(Trifluoromethyl)thiazol-2-yl)picolinamide] | 0.8 |  | some activity | 5.3 ± 0.2 (≈ 1.45 µg/mL) | cytotoxicity (in words) [1]: cytotoxicity
38 | Cc1nc(NC(=O)c2ccccn2)sc1[N+](=O)[O-] [compound 50, N-(4-Methyl-5-nitrothiazol-2-yl)picolinamide] | 4.2 |  | some activity | 1.5 ± 0.6 (≈ 0.396 µg/mL) | cytotoxicity (in words) [1]: cytotoxicity
39 | O=C(Nc1ncc(C(=O)O)s1)c1ccccn1 [compound 51, 2-(Picolinamido)thiazole-5-carboxylic Acid] | >50 |  | inactive | > 20 | 
40 | O=C(Nc1nc(-c2ccccn2)cs1)c1ccccn1 [compound 52, N-(4-(Pyridin-2-yl)thiazol-2-yl)picolinamide] | 15 |  | inactive | > 20 | 
41 | O=C(Nc1nc(-c2ccccn2)c([N+](=O)[O-])s1)c1ccccn1 [compound 53, N-(5-Nitro-4-(pyridin-2-yl)thiazol-2-yl)picolinamide] | 6.4 |  | some activity | 8.5 ± 2.1 (≈ 2.78 µg/mL) | cytotoxicity (in words) [1]: cytotoxicity
42 | O=[N+]([O-])c1cnc(NS(=O)(=O)c2ccccc2O)s1 [compound 54, 2-Hydroxy-N-(5-nitrothiazol-2-yl)benzenesulfonamide] |  |  | inactive |  | 
43 | O=[N+]([O-])c1cnc(NCc2ccccc2O)s1 [compound 55, 2-(((5-Nitrothiazol-2-yl)amino)methyl)phenol] |  |  | inactive |  | 
44 | O=[N+]([O-])c1cnc(NCc2ccccn2)s1 [compound 56, 5-Nitro-N-(pyridin-2-ylmethyl)thiazol-2-amine] |  |  | inactive |  | 
